Laboratory results as given in ChEMBL document CHEMBL4507293 (2021).

Legend:
[1] = target: Sodium-dependent dopamine transporter (Homo sapiens) (UniProt Q01959); conditions: Compound concentration 10.0 uM
[2] = target: Adrenomedullin receptor AM1; CALCRL/RAMP2 (Homo sapiens) (UniProt O60895+Q16602); experiment: Adrenomedullin AM1 Eurofins-Panlabs radioligand binding assay; format: protein-complex assay; conditions: Compound concentration 10.0 uM
[3] = target: 5-hydroxytryptamine receptor 5A (Homo sapiens) (UniProt P47898); conditions: Compound concentration 10.0 uM
[4] = target: Cannabinoid receptor 1 (Homo sapiens) (UniProt P21554); conditions: Compound concentration 10.0 uM
[5] = target: Vasoactive intestinal polypeptide receptor 1 (Homo sapiens) (UniProt P32241); experiment: Inhibition of Vasoactive Intestinal Peptide VIP1 at 10 µM in the Eurofins-Panlabs radioligand binding assay (Eurofins_assay_287010); conditions: Compound concentration 10.0 uM
[6] = target: Vasopressin V2 receptor (Homo sapiens) (UniProt P30518); experiment: Inhibition of Vasopressin V2 at 10 µM in the Eurofins-Panlabs radioligand binding assay (Eurofins_assay_287610); parameters: ligand concentration 4 nM; conditions: Compound concentration 10.0 uM
[7] = target: T1, Muscarinic acetylcholine receptor M1 (Homo sapiens) (UniProt P11229); conditions: Compound concentration 10.0 uM
T1 sequence (whole entry): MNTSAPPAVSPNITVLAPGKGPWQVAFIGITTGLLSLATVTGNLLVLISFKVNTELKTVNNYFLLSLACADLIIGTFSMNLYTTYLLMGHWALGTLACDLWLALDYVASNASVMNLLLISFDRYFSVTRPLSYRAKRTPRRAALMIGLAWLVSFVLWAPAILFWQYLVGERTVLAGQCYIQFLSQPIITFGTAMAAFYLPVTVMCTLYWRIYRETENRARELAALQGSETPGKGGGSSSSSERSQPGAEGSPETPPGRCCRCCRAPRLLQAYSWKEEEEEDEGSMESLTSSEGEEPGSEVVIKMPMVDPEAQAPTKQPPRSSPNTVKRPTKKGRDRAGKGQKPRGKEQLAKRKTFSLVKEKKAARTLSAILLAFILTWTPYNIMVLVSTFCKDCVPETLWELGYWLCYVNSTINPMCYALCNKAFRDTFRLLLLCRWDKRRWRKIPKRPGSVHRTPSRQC

[8] = target: Adenosine receptor A1 (Homo sapiens) (UniProt P30542); conditions: Compound concentration 10.0 uM
[9] = target: Peroxisome proliferator-activated receptor alpha (Homo sapiens) (UniProt Q07869); experiment: PPARalpha Eurofins-Panlabs radioligand binding assay; conditions: Compound concentration 10.0 uM
[10] = target: Beta-2 adrenergic receptor (Homo sapiens) (UniProt P07550); conditions: Compound concentration 10.0 uM
[11] = target: GABA-A receptor; anion channel (Rattus norvegicus) (UniProt O09028+P15431+P18506+P18508+P19969+P20236+P23574+P23576+P28471+P28473+P30191+P62813+P63079+P63138+Q91ZM7+Q9ES14); conditions: Compound concentration 10.0 uM
[12] = target: C-X-C chemokine receptor type 4 (Homo sapiens) (UniProt P61073); experiment: Chemokine CXCR4 Eurofins-Panlabs radioligand binding assay; parameters: ligand concentration 0.03 nM; conditions: Compound concentration 10.0 uM
[13] = target: Cathepsin G (Homo sapiens) (UniProt P08311); experiment: Inhibition of Peptidase, CTSG (Cathepsin G) at 10 µM in the Eurofins-Panlabs enzyme assay (Eurofins_assay_112510); parameters: substrate with concentration; conditions: Compound concentration 10.0 uM
[14] = target: D(2) dopamine receptor (Homo sapiens) (UniProt P14416); conditions: Compound concentration 10.0 uM
[15] = target: ATP-sensitive inward rectifier potassium channel 11 (Cricetulus griseus) (UniProt A0A3L7HHE1); experiment: Inhibition of Potassium Channel [KATP] at 10 µM in the Eurofins-Panlabs radioligand binding assay (Eurofins_assay_265600); conditions: Cricetinae; Compound concentration 10.0 uM
[16] = target: Melanocortin receptor 5 (Homo sapiens) (UniProt P33032); experiment: Inhibition of Melanocortin MC5 at 10 µM in the Eurofins-Panlabs radioligand binding assay (Eurofins_assay_251400); parameters: ligand concentration 0.035 nM; conditions: Compound concentration 10.0 uM
[17] = target: Retinoic acid receptor RXR-alpha (Homo sapiens) (UniProt P19793); experiment: Retinoid X Receptor RXRalpha Eurofins-Panlabs radioligand binding assay; conditions: Compound concentration 10.0 uM
[18] = target: High affinity choline transporter 1 (Homo sapiens) (UniProt Q9GZV3); experiment: Transporter, Choline Eurofins-Panlabs radioligand binding assay; parameters: ligand concentration 0.75 nM; conditions: Rattus norvegicus; Compound concentration 10.0 uM
[19] = target: Sodium-dependent noradrenaline transporter (Homo sapiens) (UniProt P23975); conditions: Compound concentration 10.0 uM
[20] = target: Histamine H2 receptor (Homo sapiens) (UniProt P25021); conditions: Compound concentration 10.0 uM
[21] = target: Tyrosine 3-monooxygenase (Homo sapiens) (UniProt P07101); experiment: Tyrosine Hydroxylase Eurofins-Panlabs enzyme assay; parameters: substrate with concentration; conditions: Rattus norvegicus; Compound concentration 10.0 uM
[22] = target: T2, Muscarinic acetylcholine receptor M2 (Homo sapiens) (UniProt P08172); conditions: Compound concentration 10.0 uM
T2 sequence (whole entry): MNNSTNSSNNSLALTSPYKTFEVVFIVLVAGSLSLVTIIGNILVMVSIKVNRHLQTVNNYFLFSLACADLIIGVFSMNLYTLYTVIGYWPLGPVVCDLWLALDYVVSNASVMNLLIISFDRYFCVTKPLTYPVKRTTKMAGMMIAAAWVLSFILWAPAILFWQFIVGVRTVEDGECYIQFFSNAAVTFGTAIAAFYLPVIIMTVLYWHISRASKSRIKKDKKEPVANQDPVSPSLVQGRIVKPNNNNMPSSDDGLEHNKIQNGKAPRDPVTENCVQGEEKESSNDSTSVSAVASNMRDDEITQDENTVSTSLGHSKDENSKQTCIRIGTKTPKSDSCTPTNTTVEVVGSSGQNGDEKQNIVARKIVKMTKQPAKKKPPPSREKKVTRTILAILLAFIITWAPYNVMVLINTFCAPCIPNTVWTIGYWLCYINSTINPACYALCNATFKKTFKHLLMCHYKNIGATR

[23] = target: Histamine H4 receptor (Homo sapiens) (UniProt Q9H3N8); experiment: Histamine H4 Eurofins-Panlabs radioligand binding assay; conditions: Compound concentration 10.0 uM
Rattus norvegicus = species on record: Rattus norvegicus; conditions: Compound concentration 10.0 uM
[24] = target: Acetylcholinesterase (Homo sapiens) (UniProt P22303); conditions: Compound concentration 10.0 uM
[25] = target: Kappa-type opioid receptor (Homo sapiens) (UniProt P41145); conditions: Compound concentration 10.0 uM
[26] = target: Cholecystokinin receptor type A (Homo sapiens) (UniProt P32238); experiment: Inhibition of Cholecystokinin CCK1 (CCKA) at 10 µM in the Eurofins-Panlabs radioligand binding assay (Eurofins_assay_218020); conditions: Compound concentration 10.0 uM
[27] = target: Melanocortin receptor 4 (Homo sapiens) (UniProt P32245); experiment: Inhibition of Melanocortin MC4 at 10 µM in the Eurofins-Panlabs radioligand binding assay (Eurofins_assay_251350); parameters: ligand concentration 0.02 nM; conditions: Compound concentration 10.0 uM
Caspase-3 (Homo sapiens) = Caspase-3 (Homo sapiens) (UniProt P42574); experiment: Peptidase, CASP3 (Caspase 3) Eurofins-Panlabs enzyme assay; conditions: Compound concentration 10.0 uM

Measured: inhibition

Cholecystokinin receptor type A (Homo sapiens), sequence (P32238 whole entry): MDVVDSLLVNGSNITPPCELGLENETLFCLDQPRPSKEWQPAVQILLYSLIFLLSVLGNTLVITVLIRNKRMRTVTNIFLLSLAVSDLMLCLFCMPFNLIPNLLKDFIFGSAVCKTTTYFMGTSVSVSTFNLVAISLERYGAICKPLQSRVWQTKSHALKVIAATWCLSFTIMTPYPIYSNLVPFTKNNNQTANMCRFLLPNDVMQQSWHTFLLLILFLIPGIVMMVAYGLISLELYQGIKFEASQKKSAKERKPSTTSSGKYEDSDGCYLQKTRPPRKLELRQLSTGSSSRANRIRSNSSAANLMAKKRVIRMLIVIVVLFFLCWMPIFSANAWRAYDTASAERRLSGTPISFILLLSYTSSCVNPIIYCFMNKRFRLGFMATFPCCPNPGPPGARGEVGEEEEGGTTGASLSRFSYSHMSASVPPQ
Sodium-dependent dopamine transporter (Homo sapiens), sequence (Q01959 whole entry): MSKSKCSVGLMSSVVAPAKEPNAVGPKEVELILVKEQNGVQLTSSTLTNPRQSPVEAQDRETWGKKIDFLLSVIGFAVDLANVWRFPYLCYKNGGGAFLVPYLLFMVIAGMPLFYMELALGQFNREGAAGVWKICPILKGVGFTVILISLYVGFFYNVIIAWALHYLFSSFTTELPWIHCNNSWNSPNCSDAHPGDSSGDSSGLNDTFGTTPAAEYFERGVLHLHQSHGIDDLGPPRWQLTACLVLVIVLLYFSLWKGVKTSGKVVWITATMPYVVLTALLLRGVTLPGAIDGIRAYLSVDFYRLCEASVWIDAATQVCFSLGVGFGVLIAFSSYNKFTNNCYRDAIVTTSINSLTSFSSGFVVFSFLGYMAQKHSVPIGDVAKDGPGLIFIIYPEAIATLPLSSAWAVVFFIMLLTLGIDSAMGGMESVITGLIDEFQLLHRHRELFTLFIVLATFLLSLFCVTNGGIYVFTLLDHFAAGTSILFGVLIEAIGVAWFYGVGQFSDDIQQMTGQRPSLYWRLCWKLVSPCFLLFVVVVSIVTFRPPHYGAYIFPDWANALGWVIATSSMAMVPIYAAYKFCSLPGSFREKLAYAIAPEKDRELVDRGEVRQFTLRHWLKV
Vasopressin V2 receptor (Homo sapiens), sequence (P30518 whole entry): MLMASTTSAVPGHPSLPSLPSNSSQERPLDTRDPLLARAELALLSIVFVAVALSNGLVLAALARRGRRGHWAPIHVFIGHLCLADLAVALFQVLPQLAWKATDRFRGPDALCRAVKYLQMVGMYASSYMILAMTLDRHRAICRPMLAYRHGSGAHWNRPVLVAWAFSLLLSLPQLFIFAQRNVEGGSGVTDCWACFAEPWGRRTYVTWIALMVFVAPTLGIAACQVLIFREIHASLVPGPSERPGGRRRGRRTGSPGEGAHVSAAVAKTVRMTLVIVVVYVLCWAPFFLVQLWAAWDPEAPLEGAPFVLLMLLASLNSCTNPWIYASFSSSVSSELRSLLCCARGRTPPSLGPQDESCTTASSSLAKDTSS
Retinoic acid receptor RXR-alpha (Homo sapiens), sequence (P19793 whole entry): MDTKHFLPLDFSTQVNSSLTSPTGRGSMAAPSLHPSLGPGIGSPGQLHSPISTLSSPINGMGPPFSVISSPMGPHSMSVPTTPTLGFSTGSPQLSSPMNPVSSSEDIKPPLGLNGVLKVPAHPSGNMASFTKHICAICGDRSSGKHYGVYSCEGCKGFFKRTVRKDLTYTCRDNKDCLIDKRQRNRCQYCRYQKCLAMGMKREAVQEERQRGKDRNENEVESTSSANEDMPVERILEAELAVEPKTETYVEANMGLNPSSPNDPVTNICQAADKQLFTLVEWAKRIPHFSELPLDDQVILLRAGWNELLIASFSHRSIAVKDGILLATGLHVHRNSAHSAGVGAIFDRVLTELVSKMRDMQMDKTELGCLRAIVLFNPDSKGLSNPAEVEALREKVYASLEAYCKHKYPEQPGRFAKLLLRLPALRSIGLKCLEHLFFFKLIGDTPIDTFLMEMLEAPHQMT
Cannabinoid receptor 1 (Homo sapiens), sequence (P21554 whole entry): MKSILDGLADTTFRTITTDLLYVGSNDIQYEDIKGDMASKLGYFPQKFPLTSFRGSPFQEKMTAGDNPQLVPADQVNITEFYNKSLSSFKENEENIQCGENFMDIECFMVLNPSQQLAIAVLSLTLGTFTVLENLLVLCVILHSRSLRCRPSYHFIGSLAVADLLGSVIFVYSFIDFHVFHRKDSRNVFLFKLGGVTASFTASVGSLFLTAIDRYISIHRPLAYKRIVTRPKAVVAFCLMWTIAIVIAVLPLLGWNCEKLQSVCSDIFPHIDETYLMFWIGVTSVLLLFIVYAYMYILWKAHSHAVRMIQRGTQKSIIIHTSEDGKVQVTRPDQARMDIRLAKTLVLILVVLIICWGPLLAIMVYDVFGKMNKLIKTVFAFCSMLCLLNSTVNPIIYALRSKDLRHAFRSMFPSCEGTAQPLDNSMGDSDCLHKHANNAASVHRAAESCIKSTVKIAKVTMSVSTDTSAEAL
High affinity choline transporter 1 (Homo sapiens), sequence (Q9GZV3 whole entry): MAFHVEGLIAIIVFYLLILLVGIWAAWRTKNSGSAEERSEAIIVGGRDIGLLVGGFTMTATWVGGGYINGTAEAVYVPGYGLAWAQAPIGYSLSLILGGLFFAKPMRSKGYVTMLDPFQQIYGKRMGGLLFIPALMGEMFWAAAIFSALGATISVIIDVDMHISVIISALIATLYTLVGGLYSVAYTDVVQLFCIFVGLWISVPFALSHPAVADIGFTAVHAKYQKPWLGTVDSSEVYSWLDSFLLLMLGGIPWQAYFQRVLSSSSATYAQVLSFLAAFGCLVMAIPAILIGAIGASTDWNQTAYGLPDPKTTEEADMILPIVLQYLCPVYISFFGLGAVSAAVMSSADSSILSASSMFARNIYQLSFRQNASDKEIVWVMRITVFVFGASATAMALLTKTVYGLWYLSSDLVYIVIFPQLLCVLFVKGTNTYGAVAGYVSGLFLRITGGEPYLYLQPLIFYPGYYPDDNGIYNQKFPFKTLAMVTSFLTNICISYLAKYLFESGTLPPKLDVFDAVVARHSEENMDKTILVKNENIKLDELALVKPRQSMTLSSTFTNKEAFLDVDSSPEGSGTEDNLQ
Adenosine receptor A1 (Homo sapiens), sequence (P30542 whole entry): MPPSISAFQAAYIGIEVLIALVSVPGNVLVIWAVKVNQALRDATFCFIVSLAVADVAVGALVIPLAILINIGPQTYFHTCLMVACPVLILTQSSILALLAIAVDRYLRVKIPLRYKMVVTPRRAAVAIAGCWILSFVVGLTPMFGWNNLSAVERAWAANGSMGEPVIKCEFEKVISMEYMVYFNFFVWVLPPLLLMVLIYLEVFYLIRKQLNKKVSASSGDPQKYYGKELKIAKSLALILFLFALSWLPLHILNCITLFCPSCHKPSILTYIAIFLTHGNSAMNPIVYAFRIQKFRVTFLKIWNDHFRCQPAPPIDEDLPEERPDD
Cathepsin G (Homo sapiens), sequence (P08311 whole entry): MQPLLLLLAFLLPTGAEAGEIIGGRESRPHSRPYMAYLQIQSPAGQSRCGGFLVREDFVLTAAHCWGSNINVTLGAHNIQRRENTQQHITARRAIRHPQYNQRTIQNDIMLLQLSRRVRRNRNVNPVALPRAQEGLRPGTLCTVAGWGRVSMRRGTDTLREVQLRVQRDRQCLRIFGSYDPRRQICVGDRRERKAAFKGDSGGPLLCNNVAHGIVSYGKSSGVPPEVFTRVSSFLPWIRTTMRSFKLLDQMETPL
Peroxisome proliferator-activated receptor alpha (Homo sapiens), sequence (Q07869 whole entry): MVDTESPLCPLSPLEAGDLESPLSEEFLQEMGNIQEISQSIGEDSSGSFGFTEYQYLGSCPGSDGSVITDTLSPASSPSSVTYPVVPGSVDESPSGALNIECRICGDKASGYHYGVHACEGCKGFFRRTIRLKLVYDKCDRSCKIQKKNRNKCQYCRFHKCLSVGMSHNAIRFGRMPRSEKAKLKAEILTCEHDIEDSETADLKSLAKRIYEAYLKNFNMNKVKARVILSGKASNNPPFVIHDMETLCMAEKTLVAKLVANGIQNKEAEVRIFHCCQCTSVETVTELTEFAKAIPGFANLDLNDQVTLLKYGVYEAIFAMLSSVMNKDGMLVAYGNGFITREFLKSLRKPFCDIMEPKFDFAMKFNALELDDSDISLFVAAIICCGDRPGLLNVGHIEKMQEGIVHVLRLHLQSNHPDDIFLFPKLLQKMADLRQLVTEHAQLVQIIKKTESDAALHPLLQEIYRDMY
Histamine H2 receptor (Homo sapiens), sequence (P25021 whole entry): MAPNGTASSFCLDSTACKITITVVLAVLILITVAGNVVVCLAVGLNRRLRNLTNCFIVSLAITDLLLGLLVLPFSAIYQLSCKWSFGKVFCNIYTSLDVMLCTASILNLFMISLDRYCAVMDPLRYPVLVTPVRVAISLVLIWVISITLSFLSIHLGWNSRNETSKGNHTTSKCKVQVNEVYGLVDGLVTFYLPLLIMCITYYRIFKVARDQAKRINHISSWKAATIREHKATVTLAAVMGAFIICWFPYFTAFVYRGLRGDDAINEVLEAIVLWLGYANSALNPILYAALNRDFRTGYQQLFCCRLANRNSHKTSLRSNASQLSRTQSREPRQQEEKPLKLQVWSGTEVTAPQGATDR
Sodium-dependent noradrenaline transporter (Homo sapiens), sequence (P23975 whole entry): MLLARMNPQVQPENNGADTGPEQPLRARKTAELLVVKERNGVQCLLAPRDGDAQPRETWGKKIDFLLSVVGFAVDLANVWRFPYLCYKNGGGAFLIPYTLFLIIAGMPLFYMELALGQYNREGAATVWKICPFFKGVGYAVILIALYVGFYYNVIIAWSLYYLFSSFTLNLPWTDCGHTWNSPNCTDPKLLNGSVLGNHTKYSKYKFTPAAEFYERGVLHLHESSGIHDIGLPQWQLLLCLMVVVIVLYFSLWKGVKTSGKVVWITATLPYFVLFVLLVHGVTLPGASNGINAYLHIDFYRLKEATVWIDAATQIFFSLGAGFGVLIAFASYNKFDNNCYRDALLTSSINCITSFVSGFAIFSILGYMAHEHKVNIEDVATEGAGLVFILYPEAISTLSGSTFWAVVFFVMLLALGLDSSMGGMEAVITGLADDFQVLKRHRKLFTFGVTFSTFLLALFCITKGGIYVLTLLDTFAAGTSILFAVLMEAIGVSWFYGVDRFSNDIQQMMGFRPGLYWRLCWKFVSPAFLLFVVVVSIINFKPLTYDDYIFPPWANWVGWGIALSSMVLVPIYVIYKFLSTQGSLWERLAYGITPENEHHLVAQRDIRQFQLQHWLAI

CC(C)CC(=O)N1CCc2nc(-c3ccc(Br)cc3)nc(N(C)Cc3ccccc3)c2C1 [THPP-1-NC]
inactive: [1] 15.3%

COCCOc1nc(-c2ccc(Cl)nc2)nc2c1CN(C(=O)c1ncn3ccccc13)CC2 [THPP-1]
inactive: [2] -6% | [3] -7.27% | [4] 21% | [5] 8% | [6] -2% | [7] 6% | [8] 37% | [9] 4% | [10] -4% | [11] 4% | [12] 4% | [13] 17% | [14] 3% | [15] -4% | [16] 6% | [17] -4% | [18] 9% | [19] 3% | [20] 2% | [21] 4% | [22] 5% | [23] 1% | Rattus norvegicus -9% | [24] -1% | [25] 2% | [26] 5% | [27] 8% | Caspase-3 (Homo sapiens) -1%
